Here are results for 9 compounds from the NIST ThermoML archive (doi:10.1021/acs.jced.8b00015).

The structures appear in SMILES notation. Numbers after ± are expanded uncertainties.

Data set [1] can be described thus: xn = mol fraction of the nth substance listed. Conditions: 298.15 K, 101.3 kPa, Liquid.
The conditions of data set [2]: Crystal; DTA.

A word on the mass density: it is the mass of a sample divided by its volume. On to `CCCC[N+](CCCC)(CCCC)CCCC.[Br-]` [tetrabutylammonium bromide] + CN(CCO)CCO, for which the mass density came to 1056.9 ± 21 kg/m3 in data set [1] (Pycnometric method, x1 = 0.2) and 1051.3 ± 21 kg/m3 in data set [1] (Pycnometric method, x1 = 0.25).

Regarding `OCCNCCO` [diethanolamine] + CCCC[N+](CCCC)(CCCC)CCCC.[Br-], the mass density in data set [1] (Pycnometric method, x2 = 0.143) came out at 1092.7 ± 22 kg/m3.

On to `CCCC[N+](CCCC)(CCCC)CCCC.[Br-]` [tetrabutylammonium bromide] + OCCO, for which the mass density in data set [1] (Pycnometric method, x1 = 0.2) came out at 1072.7 ± 22 kg/m3; in data set [1] (Pycnometric method, x1 = 0.25), 1069.8 ± 21 kg/m3; in data set [1] (Pycnometric method, x1 = 0.333), 1065.8 ± 21 kg/m3.

Regarding `C[N+](C)(C)CCO.[Cl-]` [choline chloride] + OCCO, the mass density in data set [1] (Vibrating tube method, x1 = 0.333) is 1116.8 ± 22 kg/m3.

Take `C[N+](C)(C)CCO.[Cl-]` [choline chloride] + OCCOCCO: the mass density was 1112.1 ± 22 kg/m3 in data set [1] (Pycnometric method, x1 = 0.2) and 1116.9 ± 22 kg/m3 in data set [1] (Pycnometric method, x1 = 0.25).

`CN(CCO)CCO` [N-methyldiethanolamine] + C[N+](C)(C)CCO.[Cl-]: the mass density in data set [1] (Pycnometric method, x2 = 0.125) stood at 1053.8 ± 21 kg/m3; in data set [1] (Pycnometric method, x2 = 0.143), 1046.8 ± 21 kg/m3.

With `OCCNCCO` [diethanolamine] + C[N+](C)(C)CCO.[Cl-], in data set [1] (Pycnometric method, x2 = 0.143), the mass density worked out at 1098.4 ± 22 kg/m3.

Consider `CCCC[N+](CCCC)(CCCC)CCCC.[Br-]` [tetrabutylammonium bromide] + OCCOCCO, for which the mass density in data set [1] (Pycnometric method, x1 = 0.2) stood at 1081.8 ± 22 kg/m3; in data set [1] (Pycnometric method, x1 = 0.25), 1078.2 ± 22 kg/m3; in data set [1] (Pycnometric method, x1 = 0.333), 1075.4 ± 22 kg/m3.

Take `OCCNCCO` [diethanolamine]: in data set [2], the Normal melting temperature worked out at 27.00 ± 0.5 °C.
